Results from patent US10201587B2, “Methods of inhibiting and treating biofilms using glycopeptide antibiotics” (MELINTA THERAPEUTICS, INC., priority 2008, dated 2019).

How the values were obtained:
[1] = test system: S. epidermidis ATCC 35984; test: MBEC plate biofilm eradication, agents in combination; assay type: cell-based
Excerpt: (§1) The following strains were used for in vitro biofilm studies: vancomycin (VAN)-susceptible Enterococcus faecalis ATCC 29212 (VSE), VAN-resistant E. faecalis ATCC 51299 (VanB VRE), E. faecium ATCC 51559 (VanA VRE), S. epidermidis ATCC 12228 and the slime-producing strain S. epidermidis ATCC 35984. Biofilms were established in MBEC™ Physiology & Genetics Assay plates (Innovotech; Edmonton, Canada).

S. aureus ATCC 29213 [2] = test: Short duration (2 h) time-kill in membrane assay buffer; assay type: cell-based
Protocol: Short duration (2 h) time-kill studies were performed in membrane assay buffer (see below) to characterize the killing of S. aureus ATCC 29213 under conditions used in the membrane depolarization and permeability assays. Exponential- and stationary-phase S. aureus ATCC 29213 cells were diluted to an OD600=0.005 (approx 10^6 CFU/mL) in membrane assay buffer (10 mM HEPES-C1, pH 7.5, 50 μg/mL CaCl2) with or without 5 mM glucose, respectively. Experiments were initiated by the addition of antimicrobial agents at the indicated concentrations and bacteria were enumerated by serial-dilution plating.

[3] = test system: E. faecium ATCC 51559 (VanA VRE); test: MBEC plate biofilm eradication; assay type: cell-based; conditions: 24 h of drug challenge
Excerpt: as §1

[4] = test system: vancomycin (VAN)-susceptible Enterococcus faecalis ATCC 29212 (VSE); test: MBEC plate biofilm eradication; assay type: cell-based; conditions: 24 h of drug challenge
Excerpt: as §1

[5] = test system: VAN-resistant E. faecalis ATCC 51299 (VanB VRE); test: MBEC plate biofilm eradication; assay type: cell-based; conditions: 24 h of drug challenge
Excerpt: as §1

[6] = test system: S. epidermidis ATCC 12228; test: MBEC plate biofilm eradication; assay type: cell-based; conditions: single agents
Excerpt: as §1

[7] = test system: S. aureus strains (MSSA ATCC 29213, MRSA ATCC 33591, VRSA VRS5); test: MBEC system in vitro biofilm, statements over all three strains; assay type: cell-based; conditions: 24-hour biofilm
Protocol: The commercially-available MBEC™ system (Innovotech; Edmonton, AB, Canada) was used following the manufacturer's protocol (17) to establish in vitro biofilms of S. aureus and to determine the minimal biofilm eradication concentration (MBEC) of oritavancin and comparator antimicrobial agents. The MBEC represents the concentration of antimicrobial agent required to sterilize the biofilm after 24 hours of exposure. The MBEC™ system also allows for the determination of the minimal inhibitory concentration (MIC) of the test agent against planktonic cells under the conditions of the biofilm assay.
150 μL of bacterial inocula at 10^7 CFU/mL in tryptic soy broth was aliquoted into each well of an MBEC plate. Biofilms were established for 24 hours in a rotary incubator at 37° C. and 150 rpm. For experiments involving 72-hour biofilms, peg lids were transferred each day to 96-well plates containing 150 μL/well of fresh tryptic soy broth and incubated another 24 hours. […] The recovery plates were sonicated for 5 minutes in an ultrasonic sonicating bath (VWR Aquasonic model 550D) at the maximum setting then incubated for 24 hours and the MBECs recorded. MBECs were determined from at least three independent experiments; results represent the ranges of MBECs obtained. […]

[8] = test system: stationary-phase MRSA ATCC 43300; test: Ultrastructure by transmission electron microscopy of thin sections; assay type: cell-based, S. aureus; conditions: 3 hours in nutrient-depleted CAMHB; 1 μg/mL oritavancin, 16 μg/mL vancomycin
Protocol: Bacteria were fixed in 2.5% glutaraldehyde to cross-link proteins and help preserve morphological structure. Prior to embedding, the samples were treated with fresh 2.5% (vol/vol) glutaraldehyde in HEPES buffer (pH, 6.8) for 2 hours. The samples were then post-fixed in 2.0% (wt/vol) osmium tetroxide, followed by en bloc-staining with 2.0% (wt/vol) uranyl acetate, as a heavy-metal stain, to add contrast to the cells. The cells were then dehydrated through a series of ethanol washes then embedded in LR White resin. Once polymerized by curing, each culture sample was thin sectioned and stained by uranyl acetate and lead citrate so as to view the internal cellular constituents and the juxtaposition of cell envelope layers such as the plasma membrane and cell wall. Transmission electron microscopy was used to view the thin sections using a Philips CM10 under standard operating conditions at 100 kV.

S. aureus ATCC 29213 [9] = test: Membrane depolarization, DiSC3(5) fluorescence; assay type: cell-based; conditions: 30 min
Protocol: Bacteria were grown overnight in CAMHB and sub-cultured the following day in CAMHB to exponential phase (OD600≈0.25). Exponential- and stationary-phase cells were washed in membrane assay buffer with or without 5 mM glucose, respectively, and resuspended at an OD600=0.25. DiSC3(5) was added to a final concentration of 1.5 μM and the solution was incubated in the dark at ambient temperature for 30 minutes to allow loading of the fluorescent dye into cell membranes. After the loading period, cells were diluted 50-fold (OD600=0.005) in depolarization buffer with or without glucose for exponential- or stationary-phase cells, respectively. Assays were initiated by the addition of antimicrobial agents over a range of concentrations and were monitored in real time by fluorescence spectroscopy (λex=612, λem=665) for a period of 30 minutes. […] Experiments were repeated three times and produced similar results; results from one assay are presented.

[10] = humans, cited from earlier work
MSSA ATCC 29213 = conditions: absence of 0.002% polysorbate-80; cited from earlier work
S. aureus ATCC 29213 [11] = test: Membrane permeability, SYTO-9/propidium iodide fluorescence; assay type: cell-based; conditions: stationary-phase cells, 30 min
Protocol: For membrane permeability assays, bacteria were prepared identically as described above for the membrane depolarization assay with the exception that SYTO-9 and propidium iodide (Invitrogen Corporation) were added at 5 μM and 30 μM, respectively. Experiments were repeated three times and produced similar results; results from one assay are presented.

[12] = standard dose (oritavancin 200 mg)

CN[C@H](CC(C)C)C(=O)N[C@H]1C(=O)N[C@@H](CC(N)=O)C(=O)N[C@H]2C(=O)N[C@H]3C(=O)N[C@H](C(=O)N[C@H](C(=O)O)c4cc(O)cc(O)c4-c4cc3ccc4O)[C@H](O[C@H]3C[C@](C)(N)[C@@H](O)[C@H](C)O3)c3ccc(c(Cl)c3)Oc3cc2cc(c3O[C@@H]2O[C@H](CO)[C@@H](O)[C@H](O)[C@H]2O[C@H]2C[C@](C)(NCc3ccc(-c4ccc(Cl)cc4)cc3)[C@@H](O)[C@H](C)O2)Oc2ccc(cc2Cl)[C@H]1O [Oritavancin, N-(4-(4-chlorophenyl)benzyl)A82846B]
MBEC in combination ([1]; combination of ORI and MOX required for sterilization): 4 mg/L | MBEC in combination ([1]; combination of ORI and RFB required for sterilization): 4 mg/L | reduction in CFU (S. aureus ATCC 29213 [2]; exponential-phase cells, within 5 minutes, 16 μg/mL): 4 log | reduction in CFU (S. aureus ATCC 29213 [2]; stationary-phase cells, within the 2-hour time period, oritavancin at fCmax 800, daptomycin at fCmax): approximately 1 log | MBEC [3]: 2 to 4 mg/L | MBEC [4]: 2 to 4 mg/L | MBEC [5]: 2 to 4 mg/L | MBEC [6]: 2 to 4 mg/L | MBEC ([7]; all three S. aureus strains): 2 to 8 µg/mL | MBEC relative to respective planktonic MIC ([7]; in each experiment): within one doubling dilution | septal mid-line staining [8]: conspicuously absent | dissipation of membrane potential (DiSC3(5) fluorescence) (S. aureus ATCC 29213 [9]; exponential-phase cells): occurred in a concentration-dependent manner | dissipation of membrane potential (DiSC3(5) fluorescence) (S. aureus ATCC 29213 [9]; stationary-phase cells): occurred in a concentration-dependent manner | predicted fCmax 800 in plasma ([10]; single 800 mg dose): 16 µg/mL | estimated fCmax in plasma [10, 12]: 4 µg/mL | estimated free trough concentration in plasma [10, 12]: 0.5 µg/mL | CLSI quality control range of MIC (MSSA ATCC 29213): 0.5 to 2 µg/mL | membrane permeability (SYTO-9 fluorescence) (S. aureus ATCC 29213 [11]): increased membrane permeability
